target: T1, Human BLT2 Receptor (Homo sapiens, UniProt Q9NPC1); test: Recombinant cell assay (calcium flux, antagonist mode, LTB4 pre-stimulation); type: cell-based; conditions: pure compounds at 10 μM, 5 min pre-incubation; antagonist mode with LTB4; BLT2 HEK293T cells
T1 construct: host or cells: BLT2 HEK293T cells transiently transfected with chimeric G protein Gαqi5
T1 sequence (Q9NPC1 1-358): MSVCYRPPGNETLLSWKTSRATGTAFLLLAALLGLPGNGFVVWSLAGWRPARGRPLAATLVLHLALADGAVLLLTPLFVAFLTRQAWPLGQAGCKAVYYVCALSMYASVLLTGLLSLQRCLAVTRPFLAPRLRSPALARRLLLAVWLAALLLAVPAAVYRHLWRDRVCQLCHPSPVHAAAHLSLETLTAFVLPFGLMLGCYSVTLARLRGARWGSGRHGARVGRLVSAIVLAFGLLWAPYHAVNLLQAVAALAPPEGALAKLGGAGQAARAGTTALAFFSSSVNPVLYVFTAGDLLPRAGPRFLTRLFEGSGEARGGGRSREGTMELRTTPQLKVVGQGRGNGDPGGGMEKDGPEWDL
Experimental: A) Recombinant Cell Assay (Human BLT2 Receptor)
The BLT2 assay conducted was a functional cell based assay, with transiently transfected HEK293T cells (Transfection: with chimeric G protein Gαqi5; Minami et al, “Analysis of the effects of halothane on Gi-coupled muscarinic M2 receptor signal” Pharmacology (2004) 72: 205-12). […] The test items were measured subsequently in the antagonist mode as described above in a concentration of 10 μM (pure compounds) or 15 μg/ml (extracts and/or mixtures).
This assay was performed by Multispan, Inc., Hayward (CA, USA) under the catalog no C1272, the assay principle is outlined by Yokomizo (J Exp Med (2000) 192:421-432).
• Cells: BLT2 HEK293T cells transiently transfected with chimeric G protein Gαqi5 • Compounds: Test compounds dissolved in DMSO at a concentration of 10 mM or 100 mg/mL.
Calcium assay: Cells were seeded in 384-well plates at appropriate densities and cultured overnight. Calcium assays were conducted according to the manufacturer's protocol using Molecular Devices FLIPR Calcium 4 Assay kit. Calcium 4 dye loading buffer was added to the cells and incubated for one hour at 37° C. The test compounds were pre-incubated for 5 minutes at a final concentration of 10 μM or 15 μg/mL, respectively. Calcium flux was measured for 90 seconds with the respective agonist compound injected into the wells at 19th second. Agonist was used at a concentration in which maximum reaction was observed.
Data analysis: Calcium assay results are expressed as “RFU” (Relative Fluorescence Units) and are shown in the following table as “remaining % RFU against DMOS) (meaning % Increase in RFU after correction for DMSO and baseline). Two-tailed Student's t-test was used for treatment comparisons and statistic significance was defined as p<0.05.

| Compound | remaining % RFU against DMSO [%] |
| --- | --- |
| CC12CC(c3ccoc3)OC(=O)C1CC1OC(=O)C3(O)C(OC4OC(CO)C(O)C(O)C4O)CCC2C13C (stereo not drawn) [COI 7, 9-(furan-3-yl)-3a-hydroxy-3a1,10a-dimethyl-3-(3,4,5-trihydroxy-6-(hydroxymethyl)tetrahydro-2H-pyran-2-yloxy)decahydroisobenzofuro[7,1-fg]isochromene-4,7(3a1H,5aH)-dione] | 83.2 |
| COC(=O)C1=CCCC2C3(C)CC(c4ccoc4)OC(=O)C3CC(OC3OC(CO)C(OC4OC(CO)C(O)C(O)C4O)C(O)C3O)C12C (stereo not drawn) [COI 5, methyl 6-(3,4-dihydroxy-6-(hydroxymethyl)-5-(3,4,5-trihydroxy-6-(hydroxymethyl)tetrahydro-2H-pyran-2-yloxy)tetrahydro-2H-pyran-2-yloxy)-2-(furan-3-yl)-6a,10b-dimethyl-4-oxo-2,4,4a,5,6,6a,9,10,10a,10b-decahydro-1H-benzo[f]isochromene-7-carboxylate] | 79.7 |
| COC(=O)C1=CC(O)CC2C3(C)CC(c4ccoc4)OC(=O)C3CC(OC3OC(CO)C(O)C(O)C3O)C12C (stereo not drawn) [COI 4, methyl 2-(furan-3-yl)-9-hydroxy-6a,10b-dimethyl-4-oxo-6-(3,4,5-trihydroxy-6-(hydroxymethyl)tetrahydro-2H-pyran-2-yloxy)-2,4,4a,5,6,6a,9,10,10a,10b-decahydro-1H-benzo[f]isochromene-7-carboxylate] | 78.6 |

— patent US8962575B2, “Clerodane derivatives for modulation of leukotriene receptor activity and related diseases” (Biotropics Malaysia Berhad, priority 2011, dated 2015)
